We go through 22 compounds from patent US8546392B2, “17Beta-hydroxysteroid dehydrogenase type 1 inhibitors for the treatment of hormone-related diseases” (Universitaet des Saarlandes, priority 2008, dated 2013).

One experiment addresses 17β-HSD2 (Homo sapiens (Human), UniProt P37059). In words: 17β-HSD2 test assay (recombinant protein from Sf9 insect cells, 3H-estradiol/NAD+). It counts as biochemical. The conditions noted are these: for inhibition at 0.1 µM: read-out: HSD2 100 nM (% inhibition), inhibitor 100 nM; for inhibition at 1 µM: read-out: HSD2 1 μM (% inhibition), inhibitor 1 μM. The method, then:
Recombinant protein obtained from Sf9 insect cells (0.1 μg/ml) is incubated with 20 mM KH2PO4, pH 7.4, 30 nM ^3H-estradiol and 1 mM NAD+ for 30 min at RT in the presence of the potential inhibitor in a concentration of 1 μM or 100 nM. The stock solutions of the compounds are prepared in DMSO so that the final concentration of DMSO in the sample is 1%. After the prescribed incubation time, the reaction is quenched by adding trichloroacetic acid (10% final concentration). The samples are centrifuged in microtitration plates at 400 rpm for 10 min, and the supernatants are charged on a reversed-phase HPLC equipped with a Waters Symmetrie C18 column and
Waters Sentry Guard column. The isocratic HPLC run is performed at RT with a flow rate of 1 ml/min and acetonitrile/water 48:52 as the eluent. The radioactivity was measured by means of a Packard Flow Scintillation Analyzer. The percent inhibition was calculated by means of the formulas stated above.

The next experiment addresses 17β-HSD1 (Homo sapiens (Human), UniProt P14061). Kind of experiment: 17β-HSD1 test assay (recombinant protein from Sf9 insect cells, 3H-estrone/NADPH). Conditions: for inhibition at 1 µM: read-out: HSD 1 μM (% inhibition of HSD1); for inhibition at 0.1 µM: read-out: HSD1 100 nM (% inhibition). It counts as biochemical. The method, then: Recombinant protein obtained from Sf9 insect cells (0.1 μg/ml) is incubated with 20 mM KH2PO4, pH 7.4, 30 nM ^3H-estrone and 1 mM NADPH for 30 min at RT in the presence of the potential inhibitor in a concentration of 1 μM or 100 nM. The stock solutions of the compounds are prepared in DMSO (dimethylsulfoxide) so that the final concentration of DMSO in the sample is 1%. After the prescribed incubation time, the reaction is quenched by adding trichloroacetic acid (10% final concentration). The samples are centrifuged in microtitration plates at 400 rpm for 10 min, and the supernatants are charged on a reversed-phase HPLC equipped with a Waters Symmetrie C18 column and Waters Sentry Guard column. The isocratic HPLC run is performed at RT with a flow rate of 1 ml/min and acetonitrile/water 48:52 as the eluent. The radioactivity was measured by means of a Packard Flow Scintillation Analyzer. […]

Chain of 17β-HSD1 (P14061 whole entry): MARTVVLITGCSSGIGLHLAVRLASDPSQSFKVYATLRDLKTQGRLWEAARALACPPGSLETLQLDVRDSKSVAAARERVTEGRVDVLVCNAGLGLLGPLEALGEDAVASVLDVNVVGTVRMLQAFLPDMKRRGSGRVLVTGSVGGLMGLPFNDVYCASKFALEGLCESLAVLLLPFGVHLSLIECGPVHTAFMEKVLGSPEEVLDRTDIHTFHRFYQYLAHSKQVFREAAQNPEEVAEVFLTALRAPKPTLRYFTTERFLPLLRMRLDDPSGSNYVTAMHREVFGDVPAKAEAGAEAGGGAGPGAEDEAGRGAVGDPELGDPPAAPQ
Chain of 17β-HSD2 (P37059 whole entry): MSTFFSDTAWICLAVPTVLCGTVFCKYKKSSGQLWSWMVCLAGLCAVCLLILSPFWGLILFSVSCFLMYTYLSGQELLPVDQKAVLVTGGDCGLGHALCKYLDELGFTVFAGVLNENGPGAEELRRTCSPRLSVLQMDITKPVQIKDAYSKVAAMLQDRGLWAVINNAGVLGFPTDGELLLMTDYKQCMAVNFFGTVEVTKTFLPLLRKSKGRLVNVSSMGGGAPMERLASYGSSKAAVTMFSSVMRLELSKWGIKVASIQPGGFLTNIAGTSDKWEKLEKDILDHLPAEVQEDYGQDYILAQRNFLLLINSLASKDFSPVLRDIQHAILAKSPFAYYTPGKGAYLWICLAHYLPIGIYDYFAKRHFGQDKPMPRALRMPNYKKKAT

In general, inhibition refers to the change of the read-out against control, counted positive when it falls. Turning to `CNC(=O)/C=C/c1c(O)ccc2cc(-c3cccc(O)c3)ccc12` [Compound 39, (E)-3-(2-Hydroxy-6-(3-hydroxyphenyl)naphthalene-1-yl)-N-methylacrylamide], the inhibition at 0.1 µM stood at 33.9% at 17β-HSD2 and 19.2% at 17β-HSD1 (inhibitor 100 nM). In addition, the figures for the inhibition at 1 µM at 17β-HSD2 and at 17β-HSD1 (inhibitor 1 μM) were 73.2% and 57.6%, respectively.

In the case of `O=C(/C=C/c1c(O)ccc2cc(-c3cccc(O)c3)ccc12)Nc1ccccc1` [Compound 40, (E)-3-(2-Hydroxy-6-(3-hydroxyphenyl)naphthalene-1-yl)-N-phenylacrylamide], the values for the inhibition at 0.1 µM at 17β-HSD2 and at 17β-HSD1 (inhibitor 100 nM) were 28.1% and under 10%, respectively. Further, the inhibition at 1 µM at 17β-HSD2 was 76.9%; at 17β-HSD1 (inhibitor 1 μM), 60.4%.

Consider `CNC(=O)c1c(O)ccc2cc(-c3cccc(O)c3)ccc12` [Compound 41, 2-Hydroxy-6-(3-hydroxyphenyl)-N-methyl-1-naphthamide], for which the inhibition at 0.1 µM on 17β-HSD2 was under 10%; on 17β-HSD1 (inhibitor 100 nM), 21.8%. Also, the inhibition at 1 µM worked out at 21.6% at 17β-HSD2 and 76.3% at 17β-HSD1 (inhibitor 1 μM).

Regarding `O=C(Nc1cccc(O)c1)c1c(O)ccc2cc(-c3cccc(O)c3)ccc12` [Compound 43, 2-Hydroxy-N,6-bis(3-hydroxyphenyl)-1-naphthamide], the inhibition at 0.1 µM is under 10% on 17β-HSD2 and 20.5% on 17β-HSD1 (inhibitor 100 nM). Moreover, the inhibition at 1 µM at 17β-HSD2 was under 10%; on 17β-HSD1 (inhibitor 1 μM) it was 69.9%.

For `Cc1nnc(NC(=O)c2c(O)ccc3cc(-c4cccc(O)c4)ccc23)s1` [Compound 48, 2-Hydroxy-6-(3-hydroxyphenyl)-N-(5-methyl-1,3,4-thiadiazol-2-yl)-1-naphthamide], the inhibition at 1 µM at 17β-HSD2 was 24%; on 17β-HSD1 (inhibitor 1 μM), 68%.

For `N#Cc1ccccc1S(=O)(=O)Nc1cccc(-c2c(O)ccc3cc(-c4cccc(O)c4)ccc23)c1` [Compound 76, 2-cyano-N-{3-[2-hydroxy-6-(3-hydroxyphenyl)-1-naphthyl]phenyl}benzenesulfonamide], the inhibition at 1 µM at 17β-HSD1 (inhibitor 1 μM) amounted to 79.7%. At 17β-HSD1 (inhibitor 100 nM), the inhibition at 0.1 µM is 62.1%.

As to `O=[N+]([O-])c1cc(S(=O)(=O)Nc2cccc(-c3c(O)ccc4cc(-c5cccc(O)c5)ccc34)c2)ccc1Cl` [Compound 77, 4-chloro-N-{3-[2-hydroxy-6-(3-hydroxyphenyl)-1-naphthyl]phenyl}-3-nitrobenzenesulfonamide], at 17β-HSD1 (inhibitor 1 μM), the inhibition at 1 µM was 79.9%. Also, the inhibition at 0.1 µM at 17β-HSD1 (inhibitor 100 nM) is 73.2%.

With `COC(=O)c1csc(S(=O)(=O)Nc2cccc(-c3c(O)ccc4cc(-c5cccc(O)c5)ccc34)c2)c1OC` [Compound 78, methyl 5-{3-[2-hydroxy-6-(3-hydroxyphenyl)-1-naphthyl]phenylsulfamoyl}-4-methoxythiophene-3-carboxylate], the inhibition at 1 µM at 17β-HSD1 (inhibitor 1 μM) was determined as 79.2%. The inhibition at 0.1 µM at 17β-HSD1 (inhibitor 100 nM) is 63.7%.

As to `CC(=O)Nc1ccc(S(=O)(=O)Nc2cccc(-c3c(O)ccc4cc(-c5cccc(O)c5)ccc34)c2)cc1` [Compound 79, N-(4-{3-[2-hydroxy-6-(3-hydroxyphenyl)-1-naphthyl]phenylsulfamoyl}phenyl)acetamide], at 17β-HSD1 (inhibitor 1 μM), the inhibition at 1 µM was determined as 80.2%. In addition, the inhibition at 0.1 µM at 17β-HSD1 (inhibitor 100 nM) worked out at 73.8%.

With `CSc1nccc(-c2ccc(S(=O)(=O)Nc3cccc(-c4c(O)ccc5cc(-c6cccc(O)c6)ccc45)c3)s2)n1` [Compound 80, N-{3-[2-hydroxy-6-(3-hydroxyphenyl)-1-naphthyl]phenyl}-5-[2-(methylsulfanyl)pyrimidin-4-yl]thiophene-2-sulfonamide], the inhibition at 1 µM at 17β-HSD1 (inhibitor 1 μM) was found to be 79.4%. Besides, the inhibition at 0.1 µM at 17β-HSD1 (inhibitor 100 nM) was 64.7%.

`O=[N+]([O-])c1ccc(S(=O)(=O)Nc2cccc(-c3c(O)ccc4cc(-c5cccc(O)c5)ccc34)c2)cc1` [Compound 81, N-{3-[2-hydroxy-6-(3-hydroxyphenyl)-1-naphthyl]phenyl}-4-nitrobenzenesulfonamide]: at 17β-HSD1 (inhibitor 1 μM), the inhibition at 1 µM is 82.9%. The inhibition at 0.1 µM at 17β-HSD1 (inhibitor 100 nM) stood at 71.5%.

Turning to `O=S(=O)(Nc1cccc(-c2c(O)ccc3cc(-c4cccc(O)c4)ccc23)c1)c1ccc(Br)cc1OC(F)(F)F` [Compound 82, 4-bromo-N-{3-[2-hydroxy-6-(3-hydroxyphenyl)-1-naphthyl]phenyl}-2-(trifluoromethoxy)benzenesulfonamide], the inhibition at 1 µM at 17β-HSD1 (inhibitor 1 μM) amounted to 78.4%. Moreover, the inhibition at 0.1 µM on 17β-HSD1 (inhibitor 100 nM) is 40.5%.

`O=[N+]([O-])c1cc(C(F)(F)F)ccc1S(=O)(=O)Nc1cccc(-c2c(O)ccc3cc(-c4cccc(O)c4)ccc23)c1` [Compound 83, 2-nitro-N-{3-[2-hydroxy-6-(3-hydroxyphenyl)-1-naphthyl]phenyl}-4-(trifluoromethyl)benzenesulfonamide]: the inhibition at 1 µM at 17β-HSD1 (inhibitor 1 μM) came out at 78.1%. Further, the inhibition at 0.1 µM on 17β-HSD1 (inhibitor 100 nM) came to 49.8%.

Turning to `O=S(=O)(Nc1cccc(-c2c(O)ccc3cc(-c4cccc(O)c4)ccc23)c1)c1cc(Br)c(Br)s1` [Compound 85, 4,5-dibromo-N-{3-[2-hydroxy-6-(3-hydroxyphenyl)-1-naphthyl]phenyl}thiophene-2-sulfonamide], the inhibition at 1 µM on 17β-HSD1 (inhibitor 1 μM) worked out at 77.7%. The inhibition at 0.1 µM on 17β-HSD1 (inhibitor 100 nM) was determined as 54.5%.

Take `O=S(=O)(Nc1cccc(-c2c(O)ccc3cc(-c4cccc(O)c4)ccc23)c1)c1ccc2ncsc2c1` [Compound 86, N-{3-[2-hydroxy-6-(3-hydroxyphenyl)-1-naphthyl]-phenyl}-1,3-benzothiazole-6-sulfonamide]: at 17β-HSD1 (inhibitor 1 μM), the inhibition at 1 µM came out at 80.9%. In addition, the inhibition at 0.1 µM at 17β-HSD1 (inhibitor 100 nM) amounted to 71.6%.

On to `O=S(=O)(Nc1cccc(-c2c(O)ccc3cc(-c4cccc(O)c4)ccc23)c1)c1cccs1` [Compound 87, N-{3-[2-hydroxy-6-(3-hydroxyphenyl)-1-naphthyl]phenyl}thiophene-2-sulfonamide], for which the inhibition at 1 µM at 17β-HSD1 (inhibitor 1 μM) was 80.6%. For the same compound, the inhibition at 0.1 µM at 17β-HSD1 (inhibitor 100 nM) turned out to be 71.7%.

Consider `O=C(NCCc1ccc(S(=O)(=O)Nc2cccc(-c3c(O)ccc4cc(-c5cccc(O)c5)ccc34)c2)cc1)C(F)(F)F` [Compound 88, 2,2,2-trifluoro-N-[2-(4-{3-[2-hydroxy-6-(3-hydroxyphenyl)-1-naphthyl]phenylsulfamoyl}phenyl)ethyl]acetamide], for which, at 17β-HSD1 (inhibitor 1 μM), the inhibition at 1 µM is 82.4%. On 17β-HSD1 (inhibitor 100 nM), the inhibition at 0.1 µM turned out to be 76.8%.

Regarding `O=S(=O)(Nc1cccc(-c2c(O)ccc3cc(-c4cccc(O)c4)ccc23)c1)c1cc(F)c(Br)cc1F` [Compound 89, 4-bromo-2,5-difluoro-N-{3-[2-hydroxy-6-(3-hydroxyphenyl)-1-naphthyl]phenyl}benzenesulfonamide], the inhibition at 1 µM at 17β-HSD1 (inhibitor 1 μM) is 78.2%. In addition, the inhibition at 0.1 µM on 17β-HSD1 (inhibitor 100 nM) is 68%.

`CS(=O)(=O)NC(=O)c1cccc(-c2c(O)ccc3cc(-c4cccc(O)c4)ccc23)c1` [Compound 90, 3-(2-Hydroxy-6-(3-hydroxyphenyl)naphthalene-1-yl)-N-(methylsulfonyl)-benzamide]: on 17β-HSD1 (inhibitor 1 μM), the inhibition at 1 µM came to 77.3%. The inhibition at 0.1 µM on 17β-HSD1 (inhibitor 100 nM) amounted to 16.5%.

For `O=S(=O)(c1ccccc1)c1c(O)ccc2cc(-c3cccc(O)c3)ccc12` [Compound 91, 6-(3-Hydroxyphenyl)-1-(phenylsulfonyl)-2-naphthol], the inhibition at 1 µM at 17β-HSD1 (inhibitor 1 μM) stood at 33%.

For `Cc1ccc(S(=O)(=O)c2c(O)ccc3cc(-c4cccc(O)c4)ccc23)cc1` [Compound 92], the inhibition at 1 µM on 17β-HSD1 (inhibitor 1 μM) was 75%.

Take “N-{3-[2-hydroxy-6-(3-hydroxyphenyl)-1-naphthyl]phenyl-3-nitrobenzenesulfonamide [Compound 75]”: the “HSD1 100 nM (% inhibition)” value at 17β-HSD1 (inhibitor 100 nM) worked out at 72.8%. The “HSD 1 μM (% inhibition of HSD1)” value on 17β-HSD1 (inhibitor 1 μM) stood at 78.9%.
